Data reported in publication PMC3139112 (Journal of molecular biology, 2011).

Target: A3G (APOBEC3G) (Homo sapiens, UniProt Q9HC16)
Assay type: biochemical
Conditions: 1 μM peptide (Fig. 3B)

A3G (APOBEC3G), sequence (Q9HC16 whole entry): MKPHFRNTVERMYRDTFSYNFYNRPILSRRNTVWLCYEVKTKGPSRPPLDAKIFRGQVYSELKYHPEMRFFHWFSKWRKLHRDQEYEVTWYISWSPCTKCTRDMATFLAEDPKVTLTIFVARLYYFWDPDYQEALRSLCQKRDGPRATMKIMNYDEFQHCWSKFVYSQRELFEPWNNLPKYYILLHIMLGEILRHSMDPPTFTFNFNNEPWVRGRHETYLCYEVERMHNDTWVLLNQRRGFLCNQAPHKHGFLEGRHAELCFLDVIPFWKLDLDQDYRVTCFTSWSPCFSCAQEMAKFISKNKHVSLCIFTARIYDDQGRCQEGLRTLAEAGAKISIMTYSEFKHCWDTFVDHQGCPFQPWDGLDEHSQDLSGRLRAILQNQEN

Row | Sequence | inhibition of A3G deaminase activity (peptide screen)
1 | DLADQLIHLYYFDCF [Vif101-115] | inhibited the A3G deaminase activity
2 | IVWQVDRMRIRTWKS [Vif9-23] | inhibited the A3G deaminase activity
3 | GWFYRHHYESTHPRI [Vif37-51] | inhibited the A3G deaminase activity
4 | DCFSESAIRNAILGH [Vif113-127] | inhibited the A3G deaminase activity
